Reference: patent publication US4950647A, “T cell immunopotentiator” (Nucleic Acid Research Institute, priority 1988, dated 1990)

Assays:
[1] = tested on: S target cells (cultured lymphoblasts from SB cell line); experiment: Generation of antigen-specific primary cytotoxic T lymphocytes, 51Cr release, target S; assay type: cell-based, human; details: for % Specific Cytotoxicity: Exp. 2, C + Sx, no compound 26
Procedure: Peripheral blood mononuclear cells from healthy donor A and C were cultured together with irradiated (3000 R) peripheral blood mononuclear cells from donor B and irradiated cells (SX) from B cells of the SB cell line, respectively, for five days. At the end of the incubation period, the cells were washed and resuspended in medium and then their cytotoxic activity was determined against the specific lymphoblast target cell B or S according to the procedure of Sharma and Gupta noted above.

[2] = tested on: human lymphocytes (peripheral blood mononuclear cells); experiment: Concanavalin A (Con A) induced lymphocyte proliferation; assay type: cell-based; set-up: 3H-thymidine incorporation in Con A-stimulated cultures: unit not given here
Procedure: Peripheral blood mononuclear cells were isolated from heparinized peripheral blood of normal healthy donors as described in Sharma, B. and S. Gupta, "Antigen-specific primary cytotoxic T lymphocyte response in acquired immune deficiency syndrome (AIDS) and AIDS related complex", Clin. Exp. Immunol., 62:296, 1985. Briefly, blood was diluted 1:1 with Hanks balanced salt solution (HBSS). Peripheral blood mononuclear cells were separated on a Ficoll-Hypaque gradient. The peripheral blood mononuclear cells recovered from the interface were washed three times with HBSS and resuspended in RPMI-1640 containing 100 U/ml penicillin, 100 μg/ml streptomycin 2mM L-glutamine (GIBCO, Grand Island, N.Y.), and 10% heat-inactivated pooled A serum (Irvine Scientific, Irvine, Calif.), hereafter referred as complete medium (CM).
The ability of the compound 6-amino-(2-deoxy-α-D-erythropentofuranosyl)-imidazo[4,5,-C]pyridin-4-one to modulate lymphocyte response to plant mitogens was determined by the modified procedure of Sharma, B., O. Kohashi, M. R. Mickey, and P. T. Terasaki, "Effect of water soluble adjuvants on in vitro lymphocyte immunization", Cancer Res. 35:666, 1975. Peripheral blood mononuclear cells were cultured for 72-96 hr with phytohemagglutinin (Difco, Detroit, Mich.), Concanavalin A (Calbiochem, Calif.) or Pokeweed mitogen (GIBCO, Grand Island, N.Y.) in the presence and absence of 6-amino-(2-deoxy-α-D-erythro-pentofuranosyl)-imidazo[4,5,-C]pyridin- 4-one. The culture were set up in quadruplicate and pulsed with [^3 H]-thymidine for 16 hr and the [^3 H] thymidine incorporation was determined.
Peripheral blood mononuclear cells were cultured with different concentrations of Concanavalin A in the presence and absence of 6-amino-(2-deoxy-α-D-erythro-pentofuranosyl)-imidazo[4,5,-C]pyridin- 4-one. Lymphocyte proliferation was determined by ^3 H-thymidine incorporation.

[3] = Revankar et al. 1984; cited from earlier work
[4] = donor 1, Con A 0.25 mg/0.2 ml, compound (0.05)
[5] = donor 1, Con A 1.0 mg/0.2 ml, compound (0.006)
[6] = donor 1, Con A 4.0 mg/0.2 ml, compound (0.038)
[7] = donor 2, Con A 0.13 mg/0.2 ml, compound (0.2)
[8] = donor 2, Con A 0.13 mg/0.2 ml, compound (0.4)
[9] = donor 2, Con A 0.25 mg/0.2 ml, compound (0.2)
[10] = donor 2, Con A 0.25 mg/0.2 ml, compound (0.4)
[11] = donor 2, Con A 2.0 mg/0.2 ml, compound (0.025)
[12] = donor 3, Con A 0.13 mg/0.2 ml, compound (0.0125)
[13] = donor 3, Con A 0.13 mg/0.2 ml, compound (0.4)
[14] = donor 3, Con A 0.25 mg/0.2 ml, compound (0.05)
[15] = donor 3, Con A 0.25 mg/0.2 ml, compound (0.4)
[16] = donor 3, Con A 2.0 mg/0.2 ml, compound (0.05)
[17] = donor 3, Con A 2.0 mg/0.2 ml, compound (O.4)
[18] = donor 4, Con A 0.05 mg/0.2 ml, compound (0.025)
[19] = donor 4, Con A 0.13 mg/0.2 ml, compound (0.05)
[20] = donor 4, Con A 0.25 mg/0.2 ml, compound (0.05)
[21] = donor 5, Con A 0.5 mg/0.2 ml, compound (0.05)
[22] = donor 5, Con A 2.0 mg/0.2 ml, compound (0.025)

Nc1cc2c(ncn2[C@@H]2C[C@H](O)[C@@H](CO)O2)c(O)n1 [Test Compound, 6-amino-1-(2-deoxy-α-D-erythro-pentofuranosyl)imidazo[4,5-C]-pyridin-4-one]
% Specific Cytotoxicity ([1]; compound (0.006)): 42%
% Specific Cytotoxicity ([1]; compound (0.025)): 36%
% Specific Cytotoxicity ([1]; compound (0.1)): 53%
cytotoxic T lymphocyte activity ([1]; cultured lymphoblasts from the SB cell (leukemic) line): increased
increase in lymphocyte response to Concanavalin A [2]: marked increase
mean increase of Con A response ([2]; Table IV): 109%
suppressive effect on Con A response ([2]; Table IV): slight suppressive effect in only one case
3H-thymidine incorporation in Con A-stimulated cultures [2, 4]: 49279 ± 2732
% Potentiation [2, 4]: 32%
3H-thymidine incorporation in Con A-stimulated cultures [2, 5]: 71105 ± 4015
% Potentiation [2, 5]: 34%
3H-thymidine incorporation in Con A-stimulated cultures [2, 6]: 99322 ± 8655
% Potentiation [2, 6]: 43%
3H-thymidine incorporation in Con A-stimulated cultures [2, 7]: 18607 ± 2157
% Potentiation [2, 7]: 318%
3H-thymidine incorporation in Con A-stimulated cultures [2, 8]: 31068 ± 2678
% Potentiation [2, 8]: 599%
3H-thymidine incorporation in Con A-stimulated cultures [2, 9]: 44958 ± 2248
% Potentiation [2, 9]: 203%
3H-thymidine incorporation in Con A-stimulated cultures [2, 10]: 48354 ± 3336
% Potentiation [2, 10]: 226%
3H-thymidine incorporation in Con A-stimulated cultures [2, 11]: 162317 ± 10872
% Potentiation [2, 11]: 29%
3H-thymidine incorporation in Con A-stimulated cultures [2, 12]: 29693 ± 4998
% Potentiation [2, 12]: 50%
3H-thymidine incorporation in Con A-stimulated cultures [2, 13]: 39902 ± 2918
% Potentiation [2, 13]: 102%
3H-thymidine incorporation in Con A-stimulated cultures [2, 14]: 57780 ± 9762
% Potentiation [2, 14]: 36%
3H-thymidine incorporation in Con A-stimulated cultures [2, 15]: 51010 ± 3861
% Potentiation [2, 15]: 20%
3H-thymidine incorporation in Con A-stimulated cultures [2, 16]: 122692 ± 3643
% Potentiation [2, 16]: 12%
3H-thymidine incorporation in Con A-stimulated cultures [2, 17]: 98613 ± 4737
% Potentiation [2, 17]: -11%
3H-thymidine incorporation in Con A-stimulated cultures [2, 18]: 43957 ± 6053
% Potentiation [2, 18]: 54%
3H-thymidine incorporation in Con A-stimulated cultures [2, 19]: 44234 ± 5027
% Potentiation [2, 19]: 110%
3H-thymidine incorporation in Con A-stimulated cultures [2, 20]: 39059 ± 5098
% Potentiation [2, 20]: 49%
3H-thymidine incorporation in Con A-stimulated cultures [2, 21]: 71303 ± 3633
% Potentiation [2, 21]: 33%
3H-thymidine incorporation in Con A-stimulated cultures [2, 22]: 75046 ± 1495
% Potentiation [2, 22]: 16%
in vitro antiviral activity [3]: limited in vitro antiviral activity
